Counter-ions that a name gives are not always drawn.
Target: PI3Kδ (p110δ/p85α) (Homo sapiens (Human), UniProt O00329)
Assay: PI3Kδ Scintillation Proximity Assay (Example A3)
Type: biochemical
Excerpt: Example A3: PI3Kδ Scintillation Proximity Assay
[γ-^33P]ATP (10 mCi/mL) was purchased from Perkin-Elmer (Waltham, Mass.). Lipid kinase substrate, D-myo-Phosphatidylinositol 4,5-bisphosphate (PtdIns(4,5)P2)D (+)-sn-1,2-di-O-octanoylglyceryl, 3-O-phospho linked (PIP2), CAS 204858-53-7, was purchased from Echelon Biosciences (Salt Lake City, Utah). PI3Kδ (p110δ/p85α) was purchased from Millipore (Bedford, Mass.). ATP, MgCl2, DTT, EDTA, MOPS and CHAPS were purchased from Sigma-Aldrich (St. Louis, Mo.). Wheat Germ Agglutinin (WGA) YSi SPA Scintillation Beads was purchased from GE healthcare life sciences (Piscataway, N.J.).
The kinase reaction was conducted in polystyrene 384-well matrix white plate from Thermo Fisher Scientific in a final volume of 25 μL. Inhibitors were first diluted serially in DMSO and added to the plate wells before the addition of other reaction components. The final concentration of DMSO in the assay was 0.5%. The PI3K assays were carried out at room temperature in 20 mM MOPS, pH 6.7, 10 mM MgCl2, 5 mM DTT and CHAPS 0.03%. Reactions were initiated by the addition of ATP, the final reaction mixture consisted of 20 µM PIP2, 20 µM ATP, 0.2 μCi [γ-^33P]ATP, 4 nM PI3Kδ. Reactions were incubated for 210 min and terminated by the addition of 40 μL SPA beads suspended in quench buffer: 150 mM potassium phosphate pH 8.0, 20% glycerol. 25 mM EDTA, 400 µM ATP. The final concentration of SPA beads was 1.0 mg/mL. After the plate sealing, plates were shaken overnight at room temperature and centrifuged at 1800 rpm for 10 minutes, the radioactivity of the product was determined by scintillation counting on Topcount (Perkin-Elmer). IC50 determination was performed by fitting the curve of percent control activity versus the log of the inhibitor concentration using the GraphPad Prism 3.0 software. […] IC50 data for Examples 1-25 is presented in Table 3 for PI3Kδ as determined by the assay of Example A2 or A3 as indicated

PI3Kδ (p110δ/p85α), sequence (O00329 whole entry): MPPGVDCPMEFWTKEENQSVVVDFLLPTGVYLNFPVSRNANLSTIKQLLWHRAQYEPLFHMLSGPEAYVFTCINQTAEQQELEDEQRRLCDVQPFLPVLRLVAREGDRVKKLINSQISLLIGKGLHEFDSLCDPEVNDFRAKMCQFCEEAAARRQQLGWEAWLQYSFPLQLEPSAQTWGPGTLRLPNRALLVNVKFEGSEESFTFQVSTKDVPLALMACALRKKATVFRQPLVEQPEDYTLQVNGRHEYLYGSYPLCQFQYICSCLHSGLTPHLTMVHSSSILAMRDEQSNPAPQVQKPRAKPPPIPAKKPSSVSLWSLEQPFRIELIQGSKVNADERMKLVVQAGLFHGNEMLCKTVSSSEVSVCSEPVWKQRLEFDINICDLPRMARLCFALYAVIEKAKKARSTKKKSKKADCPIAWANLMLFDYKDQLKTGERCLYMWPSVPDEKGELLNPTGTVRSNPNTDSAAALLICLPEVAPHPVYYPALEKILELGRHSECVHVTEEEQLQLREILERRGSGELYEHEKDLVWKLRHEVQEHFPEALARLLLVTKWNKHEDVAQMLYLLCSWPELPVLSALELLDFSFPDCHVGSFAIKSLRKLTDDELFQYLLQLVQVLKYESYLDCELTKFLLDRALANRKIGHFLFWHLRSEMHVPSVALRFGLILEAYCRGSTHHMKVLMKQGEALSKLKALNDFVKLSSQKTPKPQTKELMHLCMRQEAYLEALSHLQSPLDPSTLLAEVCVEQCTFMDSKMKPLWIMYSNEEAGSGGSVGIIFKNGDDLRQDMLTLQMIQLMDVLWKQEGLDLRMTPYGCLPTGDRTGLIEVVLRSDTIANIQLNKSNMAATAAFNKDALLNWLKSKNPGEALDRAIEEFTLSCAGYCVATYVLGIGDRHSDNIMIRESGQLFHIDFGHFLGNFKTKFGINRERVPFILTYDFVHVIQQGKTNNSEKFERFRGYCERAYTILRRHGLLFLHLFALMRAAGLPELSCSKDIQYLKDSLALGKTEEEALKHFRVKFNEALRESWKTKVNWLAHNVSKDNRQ
PI3Kδ (p110δ/p85α), sequence (P27986 whole entry partner): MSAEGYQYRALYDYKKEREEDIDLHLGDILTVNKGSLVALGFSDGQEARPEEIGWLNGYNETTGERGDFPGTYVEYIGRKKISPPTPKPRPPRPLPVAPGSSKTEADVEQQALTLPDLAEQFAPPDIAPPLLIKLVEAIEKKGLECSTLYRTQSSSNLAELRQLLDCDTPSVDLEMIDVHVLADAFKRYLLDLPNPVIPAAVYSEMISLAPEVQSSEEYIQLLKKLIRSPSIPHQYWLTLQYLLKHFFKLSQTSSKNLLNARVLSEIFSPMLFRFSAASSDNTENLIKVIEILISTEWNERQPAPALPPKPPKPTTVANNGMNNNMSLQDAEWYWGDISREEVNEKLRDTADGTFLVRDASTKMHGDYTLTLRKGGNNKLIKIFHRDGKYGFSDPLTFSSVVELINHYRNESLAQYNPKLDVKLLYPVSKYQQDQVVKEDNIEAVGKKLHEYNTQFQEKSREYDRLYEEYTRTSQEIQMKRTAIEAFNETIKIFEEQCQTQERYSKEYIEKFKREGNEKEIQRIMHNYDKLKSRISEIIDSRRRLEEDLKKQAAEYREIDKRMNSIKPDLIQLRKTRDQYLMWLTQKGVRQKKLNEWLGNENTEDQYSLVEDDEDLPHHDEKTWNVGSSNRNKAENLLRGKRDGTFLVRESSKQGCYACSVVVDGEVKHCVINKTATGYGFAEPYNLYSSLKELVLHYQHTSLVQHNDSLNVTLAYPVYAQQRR

Compound	IC50 [nM]
Cc1c(Cl)cc(C(C)n2nc(C)c3c(N)ncnc32)c2c1CN(C(=O)OC(C)(C)C)CCO2 (centres unmarked) [Example 1, tert-Butyl 9-[1-(4-amino-3-methyl-1H-pyrazolo[3,4-d]pyrimidin-1-yl)ethyl]-7-chloro-6-methyl-2,3-dihydro-1,4-benzoxazepine-4(5H)-carboxylate]	100 to 500
Cc1c(Cl)cc(C(C)n2nc(C)c3c(N)ncnc32)c2c1CNCCO2 (centres unmarked) [Example 2, 1-[1-(7-Chloro-6-methyl-2,3,4,5-tetrahydro-1,4-benzoxazepin-9-yl)ethyl]-3-methyl-1H-pyrazolo[3,4-d]pyrimidin-4-amine bis(trifluoroacetate)]	≤ 100
Cc1c(Cl)cc(C(C)n2nc(C)c3c(N)ncnc32)c2c1CN(C1CN(C(=O)OC(C)(C)C)C1)CCO2 (centres unmarked) [Example 3, tert-Butyl 3-[9-[1-(4-amino-3-methyl-1H-pyrazolo[3,4-d]pyrimidin-1-yl)ethyl]-7-chloro-6-methyl-2,3-dihydro-1,4-benzoxazepin-4(5H)-yl]azetidine-1-carboxylate]	≤ 100
CC(=O)N1CC(N2CCOc3c(C(C)n4nc(C)c5c(N)ncnc54)cc(Cl)c(C)c3C2)C1 (centres unmarked) [Example 4, 1-{1-[4-(1-Acetylazetidin-3-yl)-7-chloro-6-methyl-2,3,4,5-tetrahydro-1,4-benzoxazepin-9-yl]ethyl}-3-methyl-1H-pyrazolo[3,4-d]pyrimidin-4-amine]	≤ 100
Cc1c(Cl)cc(C(C)n2nc(C)c3c(N)ncnc32)c2c1CN(C1CCC1)CCO2 (centres unmarked) [Example 5, 1-[1-(7-Chloro-4-cyclobutyl-6-methyl-2,3,4,5-tetrahydro-1,4-benzoxazepin-9-yl)ethyl]-3-methyl-1H-pyrazolo[3,4-d]pyrimidin-4-amine bis(trifluoroacetate)]	≤ 100
Cc1c(Cl)cc(C(C)n2nc(C)c3c(N)ncnc32)c2c1CN(C1CCCC1)CCO2 (centres unmarked) [Example 6, 1-[1-(7-Chloro-4-cyclopentyl-6-methyl-2,3,4,5-tetrahydro-1,4-benzoxazepin-9-yl)ethyl]-3-methyl-1H-pyrazolo[3,4-d]pyrimidin-4-amine bis(trifluoroacetate)]	≤ 100
Cc1c(Cl)cc(C(C)n2nc(C)c3c(N)ncnc32)c2c1CN(C1CCCCC1)CCO2 (centres unmarked) [Example 7, 1-[1-(7-Chloro-4-cyclohexyl-6-methyl-2,3,4,5-tetrahydro-1,4-benzoxazepin-9-yl)ethyl]-3-methyl-1H-pyrazolo[3,4-d]pyrimidin-4-amine bis(trifluoroacetate)]	≤ 100
COC1CCC(N2CCOc3c(C(C)n4nc(C)c5c(N)ncnc54)cc(Cl)c(C)c3C2)CC1 (centres unmarked) [Example 8, 1-{1-[7-Chloro-4-(4-methoxycyclohexyl)-6-methyl-2,3,4,5-tetrahydro-1,4-benzoxazepin-9-yl]ethyl}-3-methyl-1H-pyrazolo[3,4-d]pyrimidin-4-amine bis(trifluoroacetate)]	≤ 100
Cc1c(Cl)cc(C(C)n2nc(C)c3c(N)ncnc32)c2c1CN(C)CCO2 (centres unmarked) [Example 9, 1-[1-(7-Chloro-4,6-dimethyl-2,3,4,5-tetrahydro-1,4-benzoxazepin-9-yl)ethyl]-3-methyl-1H-pyrazolo[3,4-d]pyrimidin-4-amine bis(trifluoroacetate)]	≤ 100
Cc1c(Cl)cc(C(C)n2nc(C)c3c(N)ncnc32)c2c1CN(C(C)C)CCO2 (centres unmarked) [Example 10, 1-[1-(7-Chloro-4-isopropyl-6-methyl-2,3,4,5-tetrahydro-1,4-benzoxazepin-9-yl)ethyl]-3-methyl-1H-pyrazolo[3,4-d]pyrimidin-4-amine bis(trifluoroacetate)]	≤ 100
Cc1c(Cl)cc(C(C)n2nc(C)c3c(N)ncnc32)c2c1CN(CC#N)CCO2 (centres unmarked) [Example 11, [9-[1-(4-Amino-3-methyl-1H-pyrazolo[3,4-d]pyrimidin-1-yl)ethyl]-7-chloro-6-methyl-2,3-dihydro-1,4-benzoxazepin-4(5H)-yl]acetonitrile bis(trifluoroacetate)]	≤ 100
CC(=O)N1CCOc2c(C(C)n3nc(C)c4c(N)ncnc43)cc(Cl)c(C)c2C1 (centres unmarked) [Example 19, 1-[1-(4-Acetyl-7-chloro-6-methyl-2,3,4,5-tetrahydro-1,4-benzoxazepin-9-yl)ethyl]-3-methyl-1H-pyrazolo[3,4-d]pyrimidin-4-amine trifluoroacetate]	≤ 100

Further lines, results first:

IC50 [nM]	Compound
≤ 100	Cc1c(Cl)cc(C(C)n2nc(C)c3c(N)ncnc32)c2c1CN(C(=O)CC#N)CCO2 (centres unmarked) [Example 12, 3-[9-[1-(4-Amino-3-methyl-1H-pyrazolo[3,4-d]pyrimidin-1-yl)ethyl]-7-chloro-6-methyl-2,3-dihydro-1,4-benzoxazepin-4(5H)-yl]-3-oxopropanenitrile trifluoroacetate]
≤ 100	Cc1c(Cl)cc(C(C)n2nc(C)c3c(N)ncnc32)c2c1CN(S(C)(=O)=O)CCO2 (centres unmarked) [Example 13, 1-{1-[7-Chloro-6-methyl-4-(methylsulfonyl)-2,3,4,5-tetrahydro-1,4-benzoxazepin-9-yl]ethyl}-3-methyl-1H-pyrazolo[3,4-d]pyrimidin-4-amine trifluoroacetate]
≤ 100	Cc1c(Cl)cc(C(C)n2nc(C)c3c(N)ncnc32)c2c1CN(S(=O)(=O)c1ccccc1)CCO2 (centres unmarked) [Example 14, 1-{1-[7-Chloro-6-methyl-4-(phenylsulfonyl)-2,3,4,5-tetrahydro-1,4-benzoxazepin-9-yl]ethyl}-3-methyl-1H-pyrazolo[3,4-d]pyrimidin-4-amine trifluoroacetate]
≤ 100	Cc1ccccc1NC(=O)N1CCOc2c(C(C)n3nc(C)c4c(N)ncnc43)cc(Cl)c(C)c2C1 (centres unmarked) [Example 15, 9-[1-(4-Amino-3-methyl-1H-pyrazolo[3,4-d]pyrimidin-1-yl)ethyl]-7-chloro-6-methyl-N-(2-methylphenyl)-2,3-dihydro-1,4-benzoxazepine-4(5H)-carboxamide trifluoroacetate]
≤ 100	Cc1c(Cl)cc(C(C)n2nc(C)c3c(N)ncnc32)c2c1CN(C(=O)c1ccccc1)CCO2 (centres unmarked) [Example 16, 1-[1-(4-Benzoyl-7-chloro-6-methyl-2,3,4,5-tetrahydro-1,4-benzoxazepin-9-yl)ethyl]-3-methyl-1H-pyrazolo[3,4-d]pyrimidin-4-amine trifluoroacetate]
≤ 100	Cc1noc(C)c1S(=O)(=O)N1CCOc2c(C(C)n3nc(C)c4c(N)ncnc43)cc(Cl)c(C)c2C1 (centres unmarked) [Example 17, 1-(1-{7-Chloro-4-[(3,5-dimethylisoxazol-4-yl)sulfonyl]-6-methyl-2,3,4,5-tetrahydro-1,4-benzoxazepin-9-yl}yl)ethyl)-3-methyl-1H-pyrazolo[3,4-d]pyrimidin-4-amine trifluoroacetate]
≤ 100	Cc1c(Cl)cc(C(C)n2nc(C)c3c(N)ncnc32)c2c1CN(S(=O)(=O)C1CC1)CCO2 (centres unmarked) [Example 18, 1-{1-[7-Chloro-4-(cyclopropylsulfonyl)-6-methyl-2,3,4,5-tetrahydro-1,4-benzoxazepin-9-yl]ethyl}-3-methyl-1H-pyrazolo[3,4-d]pyrimidin-4-amine trifluoroacetate]
≤ 100	CCC(=O)N1CCOc2c(C(C)n3nc(C)c4c(N)ncnc43)cc(Cl)c(C)c2C1 (centres unmarked) [Example 20, 1-[1-(7-Chloro-6-methyl-4-propionyl-2,3,4,5-tetrahydro-1,4-benzoxazepin-9-yl)ethyl]-3-methyl-1H-pyrazolo[3,4-d]pyrimidin-4-amine trifluoroacetate]
